From US7338941B2, “Pharmaceutical compositions for lowering blood glucose and blood cholesterol levels” (Diakron Pharmaceuticals, Inc., priority 2002, dated 2008)
Several values for one entry are separate records, joined by “and”; a condition that tells them apart may be missing. Equal values may be shown once.

Test system: db/db mice
Experiment: Blood-sugar-lowering activity in db/db obese mice (oral, daily for 5 days)
Format: in vivo
Conditions: for % change in blood glucose after 5 days of treatment (decrease): reduction vs day 0
Procedure: Db/db mice are commonly used as an in vivo model for studying type II diabetes in animals. Db/db (C57BLKS/J-m+/+Lepr^db) obese mice are obtained from Jackson Laboratories (Maine) and maintained in a temperature-controlled (25° C.) facility with a strict 12-h light/dark cycle and given free access to food and water. Mice are fed pelleted rodent chow which is low in fat (4% w/w). Fasting mice are orally administered with isovitexin dissolved in aqueous vehicle containing 50% PEG50% (10 mg/kg body weight) in a total volume of 200 μL or vehicle alone daily for 5 days. Food is removed from mice 4 hours before the collection of blood from the tail vein. Blood is obtained from mice by drawing one drop of blood (˜50 μL) from the tail vein for glucose analysis. Blood glucose is analyzed using a digital glucometer. Db/db obese mice (n=3: test; n=4: vehicle) were treated daily with 200 μL of isovitexin dissolved in an aqueous solution of PEG 50% (10 mg/kg body weight) or vehicle alone for 5 days. Blood glucose was estimated on day 0, one day prior to initiation of the treatment and on day 5, four hours after withdrawal of food. Blood was obtained from mice by drawing one drop of blood (˜50 μL) from the tail vein for glucose analysis. Blood glucose was analyzed using a digital glucometer and performed in duplicate. Blood glucose values are described as mg/dL±SD. The blood glucose levels in the vehicle treated group (n=4) were 446±35 on day 0 and 477±48 on day 5. […] The results are summarized in Tables 1 and 2 below, and FIG. 1.

## O=c1cc(-c2ccc(O)cc2)oc2cc(O)c([C@@H]3O[C@H](CO)[C@@H](O)[C@H](O)[C@H]3O)c(O)c12 [Isovitexin, 4H-1-benzopyran-4-one, 6-β-D-glucopyranosyl-5,7-dihydroxy-2-(4-hydroxyphenyl)]
db/db mice n=3, isovitexin group before treatment, ± SD
  blood glucose levels, group mean on day 0: 493 ± 54 mg/dL
db/db mice n=3, oral 10 mg/kg daily for 5 days, ± SD
  blood glucose levels, group mean on day 5: 404 ± 10 mg/dL
db/db mice, 10 mg/kg body weight
  lowering of blood glucose (in words): effective in lowering of blood glucose
db/db mice, isovitexin group baseline day 0, one day prior to treatment, ± SD of duplicate
  blood glucose levels, before treatment (day 0), individual mouse: 473 ± 6.36 mg/dL and 554 ± 7.07 mg/dL and 451 ± 21 mg/dL
db/db mice, oral 10 mg/kg daily for 5 days, 4 h after food withdrawal, ± SD of duplicate, 10 mg/kg
  blood glucose levels, after treatment with isovitexin (day 5), individual mouse: 400 ± .71 mg/dL and 415 ± 21.9 mg/dL and 396 ± 2.12 mg/dL
db/db mice, oral 10 mg/kg daily for 5 days, 10 mg/kg
  % change in blood glucose after 5 days of treatment (decrease): 17.8 ± 7.21 (decrease) %
db/db mice, oral 10 mg/kg daily for 5 days, listed as DP-1032T, 10 mg/kg
  % change in blood glucose after 5 days of treatment (decrease): ~17.8%
